Normalised inhibition (eCFP-eYFP dual reporter) data for 20 substances are collected here from the OligoGym collection.

Oligonucleotides are given in HELM: sugar(base)linkage, 5' to 3'; d 2'-deoxyribose, r ribose, m 2'-O-methylribose, p phosphate. ss, as = sense and antisense strand
Further: test concentration or dose not given here.

This data set concerns the target TMEM63B. Nature of the data set: reporter assay of Huesken 2005. The conditions noted are these: siRNA. (In general: Reporter assays use an easily measured gene product as a stand-in for the process of interest.)
Turning to “RNA1{r(C)p.r(U)p.r(G)p.r(C)p.r(C)p.r(G)p.r(G)p.r(C)p.r(C)p.r(A)p.r(A)p.r(G)p.r(C)p.r(U)p.r(G)p.r(G)p.r(A)p.r(C)p.r(A)p.d(T)p.d(T)}|RNA2{r(U)p.r(G)p.r(U)p.r(C)p.r(C)p.r(A)p.r(G)p.r(C)p.r(U)p.r(U)p.r(G)p.r(G)p.r(C)p.r(C)p.r(G)p.r(G)p.r(C)p.r(A)p.r(G)p.d(G)p.d(T)}$$$RNA1{StrandType:ss}|RNA2{StrandType:as}$”, the normalised inhibition (eCFP-eYFP dual reporter) is 65.2%. Take “RNA1{r(C)p.r(U)p.r(G)p.r(C)p.r(G)p.r(C)p.r(U)p.r(G)p.r(C)p.r(C)p.r(U)p.r(G)p.r(G)p.r(U)p.r(C)p.r(A)p.r(U)p.r(C)p.r(A)p.d(T)p.d(T)}|RNA2{r(U)p.r(G)p.r(A)p.r(U)p.r(G)p.r(A)p.r(C)p.r(C)p.r(A)p.r(G)p.r(G)p.r(C)p.r(A)p.r(G)p.r(C)p.r(G)p.r(C)p.r(A)p.r(G)p.d(C)p.d(C)}$$$RNA1{StrandType:ss}|RNA2{StrandType:as}$”: the normalised inhibition (eCFP-eYFP dual reporter) was 66.1%. As for “RNA1{r(C)p.r(U)p.r(G)p.r(C)p.r(U)p.r(C)p.r(A)p.r(U)p.r(G)p.r(U)p.r(A)p.r(C)p.r(A)p.r(U)p.r(G)p.r(A)p.r(U)p.r(C)p.r(C)p.d(T)p.d(T)}|RNA2{r(G)p.r(G)p.r(A)p.r(U)p.r(C)p.r(A)p.r(U)p.r(G)p.r(U)p.r(A)p.r(C)p.r(A)p.r(U)p.r(G)p.r(A)p.r(G)p.r(C)p.r(A)p.r(G)p.d(G)p.d(C)}$$$RNA1{StrandType:ss}|RNA2{StrandType:as}$”, the normalised inhibition (eCFP-eYFP dual reporter) turned out to be 49%. Turning to “RNA1{r(C)p.r(U)p.r(G)p.r(C)p.r(U)p.r(G)p.r(A)p.r(A)p.r(G)p.r(C)p.r(A)p.r(C)p.r(C)p.r(U)p.r(G)p.r(G)p.r(U)p.r(A)p.r(G)p.d(T)p.d(T)}|RNA2{r(C)p.r(U)p.r(A)p.r(C)p.r(C)p.r(A)p.r(G)p.r(G)p.r(U)p.r(G)p.r(C)p.r(U)p.r(U)p.r(C)p.r(A)p.r(G)p.r(C)p.r(A)p.r(G)p.d(C)p.d(A)}$$$RNA1{StrandType:ss}|RNA2{StrandType:as}$”, the normalised inhibition (eCFP-eYFP dual reporter) amounted to 75%. The same measure for “RNA1{r(C)p.r(U)p.r(G)p.r(G)p.r(U)p.r(C)p.r(A)p.r(U)p.r(C)p.r(A)p.r(C)p.r(C)p.r(A)p.r(U)p.r(C)p.r(G)p.r(U)p.r(C)p.r(A)p.d(T)p.d(T)}|RNA2{r(U)p.r(G)p.r(A)p.r(C)p.r(G)p.r(A)p.r(U)p.r(G)p.r(G)p.r(U)p.r(G)p.r(A)p.r(U)p.r(G)p.r(A)p.r(C)p.r(C)p.r(A)p.r(G)p.d(G)p.d(A)}$$$RNA1{StrandType:ss}|RNA2{StrandType:as}$”: 67%. Take “RNA1{r(C)p.r(U)p.r(G)p.r(U)p.r(A)p.r(C)p.r(U)p.r(U)p.r(C)p.r(A)p.r(C)p.r(A)p.r(A)p.r(A)p.r(C)p.r(C)p.r(U)p.r(C)p.r(C)p.d(T)p.d(T)}|RNA2{r(G)p.r(G)p.r(A)p.r(G)p.r(G)p.r(U)p.r(U)p.r(U)p.r(G)p.r(U)p.r(G)p.r(A)p.r(A)p.r(G)p.r(U)p.r(A)p.r(C)p.r(A)p.r(G)p.d(C)p.d(T)}$$$RNA1{StrandType:ss}|RNA2{StrandType:as}$”: the normalised inhibition (eCFP-eYFP dual reporter) came out at 57.4%.

As for “RNA1{r(C)p.r(U)p.r(G)p.r(U)p.r(G)p.r(G)p.r(A)p.r(C)p.r(C)p.r(C)p.r(C)p.r(A)p.r(G)p.r(A)p.r(A)p.r(G)p.r(C)p.r(A)p.r(A)p.d(T)p.d(T)}|RNA2{r(U)p.r(U)p.r(G)p.r(C)p.r(U)p.r(U)p.r(C)p.r(U)p.r(G)p.r(G)p.r(G)p.r(G)p.r(U)p.r(C)p.r(C)p.r(A)p.r(C)p.r(A)p.r(G)p.d(T)p.d(A)}$$$RNA1{StrandType:ss}|RNA2{StrandType:as}$”, the normalised inhibition (eCFP-eYFP dual reporter) was 75.4%. As to “RNA1{r(C)p.r(U)p.r(U)p.r(C)p.r(C)p.r(U)p.r(G)p.r(U)p.r(A)p.r(U)p.r(C)p.r(U)p.r(G)p.r(C)p.r(U)p.r(G)p.r(C)p.r(U)p.r(C)p.d(T)p.d(T)}|RNA2{r(G)p.r(A)p.r(G)p.r(C)p.r(A)p.r(G)p.r(C)p.r(A)p.r(G)p.r(A)p.r(U)p.r(A)p.r(C)p.r(A)p.r(G)p.r(G)p.r(A)p.r(A)p.r(G)p.d(G)p.d(C)}$$$RNA1{StrandType:ss}|RNA2{StrandType:as}$”, the normalised inhibition (eCFP-eYFP dual reporter) worked out at 75.8%. With “RNA1{r(C)p.r(U)p.r(U)p.r(C)p.r(U)p.r(U)p.r(U)p.r(U)p.r(C)p.r(C)p.r(A)p.r(C)p.r(C)p.r(A)p.r(U)p.r(G)p.r(C)p.r(G)p.r(C)p.d(T)p.d(T)}|RNA2{r(G)p.r(C)p.r(G)p.r(C)p.r(A)p.r(U)p.r(G)p.r(G)p.r(U)p.r(G)p.r(G)p.r(A)p.r(A)p.r(A)p.r(A)p.r(G)p.r(A)p.r(A)p.r(G)p.d(A)p.d(G)}$$$RNA1{StrandType:ss}|RNA2{StrandType:as}$”, the normalised inhibition (eCFP-eYFP dual reporter) turned out to be 39.7%. In the case of “RNA1{r(C)p.r(U)p.r(U)p.r(G)p.r(A)p.r(A)p.r(A)p.r(U)p.r(C)p.r(A)p.r(G)p.r(G)p.r(G)p.r(A)p.r(A)p.r(C)p.r(A)p.r(A)p.r(C)p.d(T)p.d(T)}|RNA2{r(G)p.r(U)p.r(U)p.r(G)p.r(U)p.r(U)p.r(C)p.r(C)p.r(C)p.r(U)p.r(G)p.r(A)p.r(U)p.r(U)p.r(U)p.r(C)p.r(A)p.r(A)p.r(G)p.d(T)p.d(T)}$$$RNA1{StrandType:ss}|RNA2{StrandType:as}$”, the normalised inhibition (eCFP-eYFP dual reporter) turned out to be 71.1%. As for “RNA1{r(C)p.r(U)p.r(U)p.r(U)p.r(C)p.r(C)p.r(U)p.r(C)p.r(A)p.r(U)p.r(C)p.r(U)p.r(U)p.r(C)p.r(A)p.r(U)p.r(G)p.r(G)p.r(U)p.d(T)p.d(T)}|RNA2{r(A)p.r(C)p.r(C)p.r(A)p.r(U)p.r(G)p.r(A)p.r(A)p.r(G)p.r(A)p.r(U)p.r(G)p.r(A)p.r(G)p.r(G)p.r(A)p.r(A)p.r(A)p.r(G)p.d(T)p.d(G)}$$$RNA1{StrandType:ss}|RNA2{StrandType:as}$”, the normalised inhibition (eCFP-eYFP dual reporter) was determined as 72.7%.

Consider “RNA1{r(C)p.r(U)p.r(U)p.r(U)p.r(U)p.r(C)p.r(C)p.r(A)p.r(C)p.r(C)p.r(A)p.r(U)p.r(G)p.r(C)p.r(G)p.r(C)p.r(A)p.r(C)p.r(G)p.d(T)p.d(T)}|RNA2{r(C)p.r(G)p.r(U)p.r(G)p.r(C)p.r(G)p.r(C)p.r(A)p.r(U)p.r(G)p.r(G)p.r(U)p.r(G)p.r(G)p.r(A)p.r(A)p.r(A)p.r(A)p.r(G)p.d(A)p.d(A)}$$$RNA1{StrandType:ss}|RNA2{StrandType:as}$”, for which the normalised inhibition (eCFP-eYFP dual reporter) stood at 0%. “RNA1{r(G)p.r(A)p.r(C)p.r(C)p.r(G)p.r(G)p.r(U)p.r(A)p.r(U)p.r(G)p.r(A)p.r(G)p.r(C)p.r(G)p.r(U)p.r(C)p.r(U)p.r(C)p.r(A)p.d(T)p.d(T)}|RNA2{r(U)p.r(G)p.r(A)p.r(G)p.r(A)p.r(C)p.r(G)p.r(C)p.r(U)p.r(C)p.r(A)p.r(U)p.r(A)p.r(C)p.r(C)p.r(G)p.r(G)p.r(U)p.r(C)p.d(A)p.d(T)}$$$RNA1{StrandType:ss}|RNA2{StrandType:as}$”: the normalised inhibition (eCFP-eYFP dual reporter) worked out at 99%. Regarding “RNA1{r(G)p.r(A)p.r(C)p.r(U)p.r(U)p.r(C)p.r(A)p.r(A)p.r(C)p.r(G)p.r(U)p.r(G)p.r(U)p.r(G)p.r(U)p.r(A)p.r(A)p.r(A)p.r(U)p.d(T)p.d(T)}|RNA2{r(A)p.r(U)p.r(U)p.r(U)p.r(A)p.r(C)p.r(A)p.r(C)p.r(A)p.r(C)p.r(G)p.r(U)p.r(U)p.r(G)p.r(A)p.r(A)p.r(G)p.r(U)p.r(C)p.d(C)p.d(T)}$$$RNA1{StrandType:ss}|RNA2{StrandType:as}$”, the normalised inhibition (eCFP-eYFP dual reporter) is 102%. The same measure for “RNA1{r(G)p.r(A)p.r(C)p.r(U)p.r(U)p.r(U)p.r(G)p.r(A)p.r(C)p.r(C)p.r(A)p.r(A)p.r(A)p.r(G)p.r(G)p.r(G)p.r(A)p.r(C)p.r(A)p.d(T)p.d(T)}|RNA2{r(U)p.r(G)p.r(U)p.r(C)p.r(C)p.r(C)p.r(U)p.r(U)p.r(U)p.r(G)p.r(G)p.r(U)p.r(C)p.r(A)p.r(A)p.r(A)p.r(G)p.r(U)p.r(C)p.d(A)p.d(A)}$$$RNA1{StrandType:ss}|RNA2{StrandType:as}$”: 89.5%. Take “RNA1{r(G)p.r(A)p.r(G)p.r(A)p.r(G)p.r(G)p.r(C)p.r(G)p.r(C)p.r(A)p.r(A)p.r(C)p.r(G)p.r(U)p.r(G)p.r(A)p.r(A)p.r(G)p.r(C)p.d(T)p.d(T)}|RNA2{r(G)p.r(C)p.r(U)p.r(U)p.r(C)p.r(A)p.r(C)p.r(G)p.r(U)p.r(U)p.r(G)p.r(C)p.r(G)p.r(C)p.r(C)p.r(U)p.r(C)p.r(U)p.r(C)p.d(G)p.d(G)}$$$RNA1{StrandType:ss}|RNA2{StrandType:as}$”: the normalised inhibition (eCFP-eYFP dual reporter) turned out to be 56.8%. On to “RNA1{r(G)p.r(A)p.r(G)p.r(G)p.r(C)p.r(G)p.r(C)p.r(A)p.r(A)p.r(C)p.r(G)p.r(U)p.r(G)p.r(A)p.r(A)p.r(G)p.r(C)p.r(G)p.r(G)p.d(T)p.d(T)}|RNA2{r(C)p.r(C)p.r(G)p.r(C)p.r(U)p.r(U)p.r(C)p.r(A)p.r(C)p.r(G)p.r(U)p.r(U)p.r(G)p.r(C)p.r(G)p.r(C)p.r(C)p.r(U)p.r(C)p.d(T)p.d(C)}$$$RNA1{StrandType:ss}|RNA2{StrandType:as}$”, for which the normalised inhibition (eCFP-eYFP dual reporter) was 59.5%. The same measure for “RNA1{r(G)p.r(A)p.r(U)p.r(A)p.r(C)p.r(U)p.r(G)p.r(U)p.r(G)p.r(G)p.r(A)p.r(C)p.r(C)p.r(C)p.r(C)p.r(A)p.r(G)p.r(A)p.r(A)p.d(T)p.d(T)}|RNA2{r(U)p.r(U)p.r(C)p.r(U)p.r(G)p.r(G)p.r(G)p.r(G)p.r(U)p.r(C)p.r(C)p.r(A)p.r(C)p.r(A)p.r(G)p.r(U)p.r(A)p.r(U)p.r(C)p.d(T)p.d(G)}$$$RNA1{StrandType:ss}|RNA2{StrandType:as}$”: 73.8%; for “RNA1{r(G)p.r(C)p.r(A)p.r(A)p.r(C)p.r(G)p.r(C)p.r(C)p.r(A)p.r(U)p.r(G)p.r(G)p.r(A)p.r(C)p.r(C)p.r(U)p.r(G)p.r(C)p.r(U)p.d(T)p.d(T)}|RNA2{r(A)p.r(G)p.r(C)p.r(A)p.r(G)p.r(G)p.r(U)p.r(C)p.r(C)p.r(A)p.r(U)p.r(G)p.r(G)p.r(C)p.r(G)p.r(U)p.r(U)p.r(G)p.r(C)p.d(C)p.d(G)}$$$RNA1{StrandType:ss}|RNA2{StrandType:as}$”: 71.1%; for “RNA1{r(G)p.r(C)p.r(A)p.r(A)p.r(C)p.r(G)p.r(U)p.r(G)p.r(A)p.r(A)p.r(G)p.r(C)p.r(G)p.r(G)p.r(C)p.r(A)p.r(U)p.r(C)p.r(A)p.d(T)p.d(T)}|RNA2{r(U)p.r(G)p.r(A)p.r(U)p.r(G)p.r(C)p.r(C)p.r(G)p.r(C)p.r(U)p.r(U)p.r(C)p.r(A)p.r(C)p.r(G)p.r(U)p.r(U)p.r(G)p.r(C)p.d(G)p.d(C)}$$$RNA1{StrandType:ss}|RNA2{StrandType:as}$”: 72.4%.
